Test system: TOV-21G ovarian cancer cells
Test: Cell viability assay, TOV-21G clear cell ovarian cancer cells
Type: cell-based
Conditions: Table C, FIGS. 24, 25
Description: In vitro cellular viability assay. ES-2 (2,500 cells/well), 786-0 ccRCCa (400 cells/well), Ramos (16,000 cells/well), SUDHL4 (16,000 cells/well), Jurkat (16,000 cells/well), CWR-R1 (1,000 cells/well), LNCaP (2,000 cells/well), and 22rv1 (2,000 cells/well) were plated into 96 well plates. Adherent ES-2, CWR-R1, LNCaP, 22rv1, and 786-0 cells were incubated for 24 h. Media in the wells was then replaced with pre-prepared media containing the appropriate drug formulations at the appropriate drug concentration. Ramos, SUDHL4, and Jurkat cells are suspension cell lines and were plated and treated on the same day. After 72 h, cell viability was measured via an MTS cell-proliferation assay (CellTiter 96 Aqueous One, Promega; Madison, WI) and the relative cell-survival percentages compared to the vehicle control were plotted against the concentration of either the AuNP or the oc-HDL NPs in logarithmic scale. The data reported represent an average of three measurements.
Addition of gold salts to HDL-NPs disclosed herein decreased cell viability more than the addition of gold salts to oc-HDL NPs disclosed herein in a clear cell ovarian cancer model (TOV-21Gcell line). Cells were treated with gold-bearing HDL-NPs or gold salts as disclosed herein in an assay described in the Materials and protocols for in vitro studies section above.

CCP(CC)CC.[Au+].[Cl-] [Et3PAuCl, Chloro(triethylphosphine)gold(I)]
IC50: 9.74 nM
